# Reference: US12702715B2, “Targeted RNA degradation allows precision repurposing of protein-targeted small molecule medicines to RNA” (University of Florida Research Foundation, Incorporated, priority 2020, dated 2026)
# “Also recorded” adds a separate entry of the source.
# Experiments:
# [1] = system: miR-21; assay: RT-qPCR of mature miR-21 levels in MDA-MB-231 cells; format: cell-based, human; conditions: for reduction of mature miR-21 levels: 1 μM; for mature miR-21 levels: MDA-MB-231, RT-qPCR
# Method: Cell Culture. Cells were cultured at 37° C. and 5% CO2. […] For compound treatment, compound stocks either in DMSO or water were diluted in growth medium and added to cells for the indicated time. […] After transfection, the medium was replaced with growth medium containing the compound of interest, prepared as described above. The RNase L-targeting siRNA or a control siRNA was transfected with Lipofectamine RNAiMAX reagent (Invitrogen) per the manufacturer's protocol.
# (§1) RNA Isolation and Quantitative Real-Time PCR (RT-qPCR). After treatment, total RNA was extracted and purified by using the Zymo Quick-RNA mini prep kit per the manufacturer's protocol. Reverse Transcription (RT) for mature miRNAs as well as pri- and pre-miR-21 was completed on 200 ng of RNA by using a miScript 11 RT kit (QIAGEN) according to manufacturer's protocol. RT of mRNAs was performed by using QScript kit (Quanta Bio). An Applied Biosystems QS5 384-well PCR system was used to complete qPCR experiments using Power Sybr Green Mater Mix (Life Technologies) as described previously^6.
# [2] = system: pre-miR-21; assay: RT-qPCR of pre-miR-21 levels in MDA-MB-231 cells; format: cell-based, human; conditions: for pre-miR-21 levels: MDA-MB-231, RT-qPCR
# Method: Cell Culture. Cells were cultured at 37° C. and 5% CO2. MDA-MB-231 cells (HTB-26, ATCC) were cultured in RMPI 1640 medium with L-glutamine & 25 mM HEPES supplemented with 1× Antibiotic/Antimycotic solution (Corning) and 10% FBS. MCF-10A cells (CRL-10317, ATCC) were cultured in 1×DMEM/F12 50/50 with L-glutamine & 15 mM HEPES (Corning) supplemented with 20% FBS, 1× Antibiotic/Antimycotic solution, 20 ng/mL human epidermal growth factor (Pepro Tech, Inc.), 10 μg/mL insulin (Sigma-Aldrich), and […] hydrocortisone (Pfaltz & Bauer). For compound treatment, compound stocks either in DMSO or water were diluted in growth medium and added to cells for the indicated time. Plasmid DNA to overexpress pre-miR-21 in pcDNA 3.1 (Addgene 21114) or a plasmid DNA encoding the pre-miR-21 mutant (custom purchased from GenScript USA, Inc.) was transfected with jetPRIME per the manufacturer's protocol. After transfection, the medium was replaced with growth medium containing the compound of interest, prepared as described above. The RNase L-targeting siRNA or a control siRNA was transfected with Lipofectamine RNAiMAX reagent (Invitrogen) per the manufacturer's protocol.
# as §1
# [3] = system: PTEN; assay: PTEN luciferase assay; format: cell-based, human; conditions: MDA-MB-231
# Method: PTEN Luciferase Assay. To study de-repression of PTEN, a luciferase-based cellular assay was performed as previously described^6. Briefly, MDA-MB-231 cells (~60% confluency) in 48-well plates were co-transfected with plasmids encoding Renilla luciferase (for normalization) and firefly luciferase fused to the 3′ UTR of PTEN by using Lipofectamine 2000 according to the manufacturer's protocol. After 5 h, the cells were treated with the compounds diluted in growth medium. Luciferase assay were then completed as previously described^4, 9.
# [4] = system: MDA-MB-231-Luc cells; format: in vivo, mouse; conditions: for pre-miR-21 levels in lung tissue: FISH; for pre-miR-21 levels in lung tissue / ERK levels in lung tissue / PDCD4 expression in lung tissue: 1 assessed after 12 days of dosing; for ERK levels in lung tissue / PDCD4 expression in lung tissue: IHC
# Source text: In Vivo Studies to Assess Metastasis of Breast Cancer to the Lung. Female NOD/SCID mice (n=10; 5-7 weeks) were used for in vivo breast cancer metastasis studies as previously reported^6. Briefly, mice purchased from Jackson Laboratory were intravenously injected (tail vein) with MDA-MB-231-Luc cells (0.8×10^6 cells/mice). Luciferase activity was monitored every other day to determine when to initiate treatment [averaged luciferase signal from mice is ten times higher than the background as measured by LagoX (Spectral Instruments)]. After 5 days, the mice were split into three groups, with each group having the same luciferase signal. […]. After 30 days, lungs were harvested and immediately fixed in Bouin's solution (Sigma, HT10132-1L) for 24 h to image nodules. After counting the nodules, the fixed lungs were washed in 60 mL of 10% formalin solution four times over 48 h to remove Bouin's solution. Paraffin-embedded sections of the lungs were then generated by the Histology Core at Scripps Research Florida for further staining.
# Lung Tissue Histology. All histological analyses were performed as previously reported^6. The slides were stained on a Leica BondMax Immunostaining platform by using a DAB refine kit. H&E staining and PDCD4, pERK and ERK IHC were performed by the Histology Core at Scripps Research Florida. All antibodies were used at a 1:100 dilution: anti-PDCD4 (Abcam, ab51495); anti-pERK (Cell Signaling Technology, 4370S); and ERK (Cell Signaling Technology, 9102S). The primary antibodies were detected using a DAB Substrate Kit (Vector Laboratories, Inc.) per the manufacturer's protocol.
# To visualize miR-21 and pre-miR-21 by fluorescence in situ hybridization (FISH), the paraffin-embedded sections were incubated at 56° C. overnight and cleaned with xylene three times, followed by washing with serially diluted concentrations of ethanol (100%, 95%, 90%, and 85%). The slides were then washed with MilliQ water three times and immersed in 0.3% (v/v) H2O2 for 30 min at room temperature. The slides were then washed with MilliQ water three times and digested with proteinase K (QIAGEN) at 37° C. for 15 min. After washing three times with MilliQ water, the slides were dehydrated with 95% ethanol and air-dried completely at room temperature. The slides were then hybridized with FITC-labeled LNA probes^6 complementary to mature ([…]*/36-FAM SEQ ID NO: 16) or pre-miR-21 ([…]/36-FAM SEQ ID NO: 17) at […] overnight. After hybridization, the slides were washed with 2×SSC (saline sodium citrate buffer) three times and then 1×DPBS three times, all at room temperature. The slides were then incubated with an anti-FITC horseradish peroxidase-conjugated antibody (Abcam) for 2 h at room temperature. The slides were washed with 1×TBST three times.
# After staining of interest was completed, the slides were dehydrated, cover-slipped with Cytoseal 60, and imaged with a Leica DM13000 B upright fluorescent microscope.
SMILES,reduction of mature miR-21 levels ([1]; MDA-MB-231),concentration giving a reduction of mature miR-21 similar to 5 μM of 1 ([1]; MDA-MB-231) [nM],fold increase in potency / miR-21 inhibitory activity compared with 1 ([1]; MDA-MB-231) [fold],mature miR-21 levels [1],cleavage of pre-miR-21 upon knock down of RNase L with an siRNA ([2]; MDA-MB-231),pre-miR-21 levels [2],PTEN expression (luciferase-based assay) [3],"weight change of NOD/Scid mice ([4]; 56 mg/kg q.o.d., over 38 days)",pre-miR-21 levels in lung tissue [4],ERK levels in lung tissue [4],PDCD4 expression in lung tissue [4],"hematoxylin and eosin (HE) staining of lung ([4]; mouse, in vivo)","decrease of mature miR-21 levels ([1]; 5 μM dose, MDA-MB-231) [%]","competition of cleavage of pre-miR-21 by RIBOTAC 2 ([2]; constant concentration of 2 (1 μM), increasing competitor)"
"CCOC(=O)C1=C(Nc2ccccc2)S/C(=C\c2ccc(OCCOCCOCCOCCNC(=O)NCCN3CCN(c4ccc5[nH]c(-c6c(N)c7c(F)cccc7[nH]c6=O)nc5c4)CC3)c(O)c2)C1=O [Compound 2, Ribotac-Dovitinib]",~ 45±9%,200,25,reduced,reduced; also recorded: repressed cleavage,decreased; also recorded: reduced,derepressed,did not cause significant changes in weight,significantly diminished,had no effect,derepressed,decrease,,
C#CCCC1(CCC(=O)NCCN2CCN(c3ccc4[nH]c(-c5c(N)c6c(F)cccc6[nH]c5=O)nc4c3)CC2)N=N1 [Compound 4],,,,decreases,,increases,,,,,,,,
"CN1CCN(c2ccc3nc(-c4c(N)c5c(F)cccc5[nH]c4=O)[nH]c3c2)CC1 [Compound 1, Dovitinib, reference compound]",not reduced,,,significantly reducing mature miR-21 levels; also recorded: reduced,,increased; also recorded: enhanced,derepressed,,did not affect,did not affect,did not affect,,32±4,competed away cleavage
